Experimental data reported in ChEMBL document CHEMBL1275528, “RamA confers multidrug resistance in Salmonella enterica via increased expression of acrB, which is inhibited by chlorpromazine” (2008).
Values after ≈ are worked out from the molar mass of the structure shown.

Key:
[1] = Antimicrobial activity against Salmonella serovar Typhimurium SL1344 expressing ramA::aph mutant by broth dilution method; assay type: functional; conditions: Salmonella enterica
[2] = Antimicrobial activity against Salmonella serovar Typhimurium SL1344 expressing ramA::aph-pTRC hisA:ramA mutant by broth dilution method in presence of IPTG; assay type: functional; conditions: Salmonella enterica
[3] = Antimicrobial activity against Salmonella serovar Typhimurium SL1344 by broth dilution method; assay type: functional; conditions: Salmonella enterica
[4] = Antimicrobial activity against Salmonella serovar Typhimurium SL1344 by broth dilution method in presence of chlorpromazine; assay type: functional; conditions: Salmonella enterica
[5] = Antimicrobial activity against Salmonella serovar Typhimurium SL1344 expressing ramA::aph-pTRC hisA:ramA mutant by broth dilution method in presence of chlorpromzine; assay type: functional; conditions: Salmonella enterica
[6] = Antimicrobial activity against Salmonella serovar Typhimurium SL1344 expressing ramA::aph-pTRC hisA:ramA mutant by broth dilution method; assay type: functional; conditions: Salmonella enterica
[7] = Antimicrobial activity against Salmonella serovar Binza 8269 by broth dilution method; assay type: functional, Salmonella enterica subsp. enterica serovar Binza; conditions: Salmonella enterica
Salmonella typhimurium [8] = experiment: Antimicrobial activity against Salmonella serovar Typhimurium LT2 by broth dilution method; assay type: functional, Salmonella enterica subsp. enterica serovar Typhimurium; conditions: Salmonella enterica
[9] = Antimicrobial activity against Salmonella serovar Haifa 9878 by broth dilution method; assay type: functional, Salmonella enterica subsp. enterica serovar Haifa; conditions: Salmonella enterica
[10] = Antimicrobial activity against Salmonella serovar Virchow 5742 by broth dilution method; assay type: functional, Salmonella enterica subsp. enterica serovar Virchow; conditions: Salmonella enterica
[11] = Antimicrobial activity against Salmonella serovar Montevideo 5747 by broth dilution method; assay type: functional, Salmonella enterica subsp. enterica serovar Montevideo; conditions: Salmonella enterica
[12] = Antimicrobial activity against Salmonella serovar Hadar by broth dilution method; assay type: functional, Salmonella enterica subsp. enterica serovar Hadar; conditions: Salmonella enterica
[13] = Antimicrobial activity against Salmonella serovar Kedougou by broth dilution method; assay type: functional, Salmonella enterica subsp. enterica serovar Kedougou; conditions: Salmonella enterica
[14] = Antimicrobial activity against Salmonella serovar Newport 129 by broth dilution method; assay type: functional, Salmonella enterica subsp. enterica serovar Newport; conditions: Salmonella enterica
Salmonella typhimurium [15] = experiment: Antimicrobial activity against Salmonella serovar Typhimurium 14028S by broth dilution method; assay type: functional, Salmonella enterica subsp. enterica serovar Typhimurium; conditions: Salmonella enterica
Salmonella enteritidis = experiment: Antimicrobial activity against Salmonella serovar Enteritidis 5188 by broth dilution method; assay type: functional, Salmonella enterica subsp. enterica serovar Enteritidis; conditions: Salmonella enterica
[16] = Antimicrobial activity against Salmonella serovar Heidelberg 5171 by broth dilution method; assay type: functional, Salmonella enterica subsp. enterica serovar Heidelberg; conditions: Salmonella enterica
[17] = Antimicrobial activity against Salmonella serovar Mbandaka 7892 by broth dilution method; assay type: functional, Salmonella enterica subsp. enterica serovar Mbandaka; conditions: Salmonella enterica
[18] = Antimicrobial activity against Salmonella serovar Typhimurium SL1344 expressing soxS::aph mutant by broth dilution method; assay type: functional; conditions: Salmonella enterica
[19] = Antimicrobial activity against Salmonella serovar Typhimurium SL1344 expressing marA::aph mutant by broth dilution method; assay type: functional; conditions: Salmonella enterica
[20] = Antimicrobial activity against Salmonella serovar Typhimurium SL1344 expressing acrB::aph mutant by broth dilution method; assay type: functional; conditions: Salmonella enterica
[21] = Antimicrobial activity against Salmonella serovar Typhimurium SL1344 assessed as acrB expression at 200 ug/ml; assay type: functional
[22] = Antimicrobial activity against Salmonella serovar Typhimurium SL1344 expressing ramA::aph mutant assessed as acrB expression at 200 ug/ml; assay type: functional
[23] = Antimicrobial activity against Salmonella serovar Typhimurium SL1344 expressing tolC::aph mutant by broth dilution method; assay type: functional; conditions: Salmonella enterica
[24] = Antimicrobial activity against Salmonella serovar Typhimurium SL1344 expressing acrF::aph mutant by broth dilution method; assay type: functional; conditions: Salmonella enterica
[25] = Antimicrobial activity against Salmonella serovar Typhimurium SL1344 expressing acrB::aph mutant assessed as ramA expression at 200 ug/ml; assay type: functional
[26] = Antimicrobial activity against Salmonella serovar Typhimurium SL1344 assessed as ramA expression at 200 ug/ml; assay type: functional
[27] = Antimicrobial activity against Salmonella serovar Typhimurium SL1344 expressing acrD::aph mutant by broth dilution method; assay type: functional; conditions: Salmonella enterica

| Structure (SMILES) | MIC [1] | MIC [2] | MIC [3] | MIC [4] | MIC [5] | MIC [6] | MIC [18] | MIC [19] | MIC [20] | MIC [23] | MIC [24] | MIC [27] | further results |
| --- | --- | --- | --- | --- | --- | --- | --- | --- | --- | --- | --- | --- | --- |
| CN(C)c1ccc(C(=C2C=CC(=[N+](C)C)C=C2)c2ccc(N(C)C)cc2)cc1.[Cl-] [GENTIAN VIOLET] | 2 µg/mL | 2 µg/mL | 2 µg/mL | 1 µg/mL | 0.5 µg/mL | 2 µg/mL | – | – | – | – | – | – | – |
| Oc1cc(Cl)ccc1Oc1ccc(Cl)cc1Cl [TRICLOSAN] | 0.12 µg/mL (≈ 0.414 µM) | 1 µg/mL | 0.12 µg/mL (≈ 0.414 µM) | – | 0.25 µg/mL | 0.25 µg/mL (≈ 0.863 µM) | – | – | – | – | – | – | – |
| CC[n+]1c(-c2ccccc2)c2cc(N)ccc2c2ccc(N)cc21.[Br-] [HOMIDIUM BROMIDE] | 1020 µg/mL | 2050 µg/mL | 1020 µg/mL | 8 µg/mL | 512 µg/mL | 2050 µg/mL | – | – | – | – | – | – | MIC [7]: 1020 µg/mL; MIC (Salmonella typhimurium [8]): 1020 µg/mL; MIC [9]: 1020 µg/mL; MIC [10]: 1020 µg/mL; MIC [11]: 1020 µg/mL; MIC [12]: 1020 µg/mL; MIC [13]: 512 µg/mL; MIC [14]: 1020 µg/mL; MIC (Salmonella typhimurium [15]): 2050 µg/mL; MIC (Salmonella enteritidis): 1020 µg/mL; MIC [16]: 512 µg/mL; MIC [17]: 1020 µg/mL |
| CN(C)[C@@H]1C(O)=C(C(N)=O)C(=O)[C@@]2(O)C(O)=C3C(=O)c4c(O)cccc4[C@@](C)(O)[C@H]3C[C@@H]12 [TETRACYCLINE] | 2 µg/mL (≈ 4.5 µM) | 16 µg/mL | 2 µg/mL (≈ 4.5 µM) | 0.25 µg/mL | 8 µg/mL | 4 µg/mL (≈ 9 µM) | – | – | – | – | – | – | – |
| O=C(O)c1cn(C2CC2)c2cc(N3CCNCC3)c(F)cc2c1=O [CIPROFLOXACIN] | 0.03 µg/mL (≈ 0.0905 µM) | 0.03 µg/mL | 0.03 µg/mL (≈ 0.0905 µM) | 0.008 µg/mL | 0.015 µg/mL | 0.03 µg/mL (≈ 0.0905 µM) | – | – | – | – | – | – | – |
| CN(C)CCCN1c2ccccc2Sc2ccc(Cl)cc21 [CHLORPROMAZINE] | 256 µg/mL (≈ 803 µM) | 512 µg/mL | 512 µg/mL (≈ 1610 µM) | – | – | 512 µg/mL (≈ 1610 µM) | 256 µg/mL (≈ 803 µM) | 256 µg/mL (≈ 803 µM) | 32 µg/mL (≈ 100 µM) | 32 µg/mL (≈ 100 µM) | 128 µg/mL (≈ 401 µM) | 128 µg/mL (≈ 401 µM) | fold change (FC) [21]: 2.6; fold change (FC) [22]: 1.6; fold change (FC) [25]: 0.7; fold change (FC) [26]: 0.4 |
| CO[C@@H]1[C@@H](OC(N)=O)[C@@H](O)[C@H](Oc2ccc3c(O)c(NC(=O)c4ccc(O)c(CC=C(C)C)c4)c(=O)oc3c2C)OC1(C)C [NOVOBIOCIN] | 256 µg/mL (≈ 418 µM) | 1020 µg/mL | 512 µg/mL (≈ 836 µM) | 64 µg/mL | 512 µg/mL | 512 µg/mL (≈ 836 µM) | – | – | – | – | – | – | – |
| CCn1cc(C(=O)O)c(=O)c2ccc(C)nc21 [NALIDIXIC ACID] | 4 µg/mL (≈ 17.2 µM) | 64 µg/mL | 4 µg/mL (≈ 17.2 µM) | – | 16 µg/mL | 16 µg/mL (≈ 68.9 µM) | – | – | – | – | – | – | – |
| O=C(N[C@H](CO)[C@H](O)c1ccc([N+](=O)[O-])cc1)C(Cl)Cl [CHLORAMPHENICOL] | 4 µg/mL (≈ 12.4 µM) | 32 µg/mL | 4 µg/mL (≈ 12.4 µM) | 0.015 µg/mL | 16 µg/mL | 8 µg/mL (≈ 24.8 µM) | – | – | – | – | – | – | – |
| CN(C)c1ccc2cc3ccc(N(C)C)cc3nc2c1 [ACRIDINE ORANGE] | 256 µg/mL (≈ 965 µM) | 512 µg/mL | 512 µg/mL (≈ 1930 µM) | 512 µg/mL | 512 µg/mL | 256 µg/mL (≈ 965 µM) | – | – | – | – | – | – | – |
| Cc1ccccc1C(OCCN(C)C)c1ccccc1 (stereo not drawn) [ORPHENADRINE] | 1020 µg/mL (≈ 3800 µM) | – | 1020 µg/mL (≈ 3800 µM) | – | – | – | 1020 µg/mL (≈ 3800 µM) | 1020 µg/mL (≈ 3800 µM) | 1020 µg/mL (≈ 3800 µM) | 1020 µg/mL (≈ 3800 µM) | 1020 µg/mL (≈ 3800 µM) | 1020 µg/mL (≈ 3800 µM) | – |
| CN1CCN(CCCN2c3ccccc3Sc3ccc(C(F)(F)F)cc32)CC1 [TRIFLUOPERAZINE] | 1020 µg/mL (≈ 2510 µM) | – | 1020 µg/mL (≈ 2510 µM) | – | – | – | 1020 µg/mL (≈ 2510 µM) | 1020 µg/mL (≈ 2510 µM) | 64 µg/mL (≈ 157 µM) | 32 µg/mL (≈ 78.5 µM) | 1020 µg/mL (≈ 2510 µM) | 1020 µg/mL (≈ 2510 µM) | – |
| CSc1ccc2c(c1)N(CCC1CCCCN1C)c1ccccc1S2 (stereo not drawn) [THIORIDAZINE] | 1020 µg/mL (≈ 2760 µM) | – | 1020 µg/mL (≈ 2760 µM) | – | – | – | 1020 µg/mL (≈ 2760 µM) | 1020 µg/mL (≈ 2760 µM) | 32 µg/mL (≈ 86.3 µM) | 32 µg/mL (≈ 86.3 µM) | 1020 µg/mL (≈ 2760 µM) | 1020 µg/mL (≈ 2760 µM) | – |
| CCn1cc(C(=O)O)c(=O)c2cc(F)c(N3CCNCC3)cc21 [NORFLOXACIN] | 0.25 µg/mL (≈ 0.783 µM) | 0.25 µg/mL | 0.06 µg/mL (≈ 0.188 µM) | 0.008 µg/mL | 0.25 µg/mL | 0.25 µg/mL (≈ 0.783 µM) | – | – | – | – | – | – | MIC [7]: 0.06 µg/mL (≈ 0.188 µM); MIC (Salmonella typhimurium [8]): 0.06 µg/mL (≈ 0.188 µM); MIC [9]: 0.06 µg/mL (≈ 0.188 µM); MIC [10]: 0.06 µg/mL (≈ 0.188 µM); MIC [11]: 0.06 µg/mL (≈ 0.188 µM); MIC [12]: 0.06 µg/mL (≈ 0.188 µM); MIC [13]: 0.06 µg/mL (≈ 0.188 µM); MIC [14]: 0.06 µg/mL (≈ 0.188 µM); MIC (Salmonella typhimurium [15]): 0.06 µg/mL (≈ 0.188 µM); MIC (Salmonella enteritidis): 0.06 µg/mL (≈ 0.188 µM); MIC [16]: 0.06 µg/mL (≈ 0.188 µM); MIC [17]: 0.06 µg/mL (≈ 0.188 µM) |
| CN(C)CCC=C1c2ccccc2CCc2ccccc21 [AMITRIPTYLINE] | 512 µg/mL (≈ 1850 µM) | – | 512 µg/mL (≈ 1850 µM) | – | – | – | 512 µg/mL (≈ 1850 µM) | 512 µg/mL (≈ 1850 µM) | 256 µg/mL (≈ 923 µM) | 256 µg/mL (≈ 923 µM) | 512 µg/mL (≈ 1850 µM) | 1020 µg/mL (≈ 3690 µM) | – |
